As usually defined, the melting point is the temperature, or range, at which the solid turns liquid. As a reminder, the ED50 is the midpoint of the dose-response relation.

The structures appear in SMILES notation. Where two headings read alike, the source gives them in different places.

The text below walks through data of patent publication US6825217B2, “Carbinols for the treatment of neuropathic dysfunction” (Endo Pharmaceuticals, Inc., priority 2001, dated 2004).

The conditions of data set [1]: CCI rats, cited from earlier work.
The conditions of data set [2]: sometimes fatally; U.S. Food and Drug Administration; cited from earlier work.
Data set [3] in a line: Mouse Tail-Flick. As to conditions: Mus musculus; read-out: Mouse Tail-Flick ED50 (unit inferred). It is filed as in vivo.
The nature of data set [4]: Rat Hot Plate. It is filed as in vivo.
Data set [5] is described as follows: Mouse antiphenylquinone writhing (PQW) test. In kind it is in vivo. Particulars: Mus musculus. The protocol: (§1) The anti-phenylquinone writhing (PQW) test modified from the methods of Siegmund et al. (Proc. Soc. Exp. Biol. Med. 95: 729-731, 1957) and Blumberg et al. (Proc. Exp. Biol. Med. 118: 763-767, 1965) was used to assess the relief from the simulated symptoms of neuropathic pain in mice. Male CF1 mice (Charles River Breeding Laboratories, Wilmington, Mass.), fasted for 16-22 hours and weighing 18-23 g, were injected with randomized and coded doses of test compounds, then challenged with 1.25 mg/kg i.p. phenyl-p-benzoquinone (phenylquinone) 5 minutes prior to the specified observation time. The phenylquinone solution (0.1 mg/ml in 5% aqueous ethanol) was prepared daily and stored in foil-wrapped amber bottles to limit degradation. Mice were observed 10 minutes for the presence or absence of the characteristic abdominal constriction and stretching response beginning 30 minutes after injection of the test compound. Activity was calculated as the percentage of mice failing to respond to the phenylquinone challenge dose. […] Median effective doses (ED50's) and 95% confidence limits were determined numerically by the methods of Thompson (Bacteriological Rev. 11: 115-145, 1947), and Litchfield and Wilcoxon (J. Pharmacol. Exp. Ther. 96: 99-113, 1949).
On the technique in general: Writhing tests count abdominal constrictions after an irritant is injected.

Data set [6] is described as follows: Rat PQW. It is filed as in vivo. Particulars: Rattus norvegicus. The protocol:
as §1

Data set [7] can be described thus: Formalin model. It is filed as in vivo. As to conditions: rat, versus saline control. An excerpt: Formalin induces inflammatory stimulation of peripheral nerves that results in sensitization of CNS nociceptive transmission pathways. There are two phases of formalin-induced nociception: phase I—an acute nociceptive component; and phase II—a chronic nociceptive component characterized by hyperalgesia.
On the morning of formalin testing, a small metal band (0.5 g) was loosely placed around the right hind paw. The rat was placed in a cylindrical Plexiglas chamber for adaptation for a minimum of 30 minutes. Compound A, venlafaxine or a saline control was administered into the dorsal surface of the right hindpaw of the rat. The animal was then placed into the chamber of the automated formalin apparatus where movement of the formalin-injected paw was monitored and the number of paw flinches tallied by minute over the next sixty minutes. Upon completion of the test the animal was removed and euthanized.

Data set [8] in a line: Chung model (tactile allodynia). It is filed as in vivo, rat. Particulars: rat; two hours post injection; doses 200 mg/kg and 100 mg/kg. The protocol:
This model for neuropathic pain was performed on rats using the surgical procedure described by Kim and Chung (1992) to induce an allodynic state. Briefly, the left L-5 and L-6 spinal nerves were isolated adjacent to the vertebral column and ligated with 6-0 silk suture distal to the dorsal root ganglion under isoflurane anesthesia. This model allows for spinal cord structural reorganization and growth of low threshold mechnoreceptor fibers from the spinal cord with synaptic connections and rewiring of the dorsal horn. This leads to spontaneous firing of invading sympathetic nerves and upregulation of receptors and voltage-dependent channels; i.e. mimics the development of allodynia (nociceptive response to a previously neutral stimulus). The rats were allowed a minimum of 7-days postoperative recovery period before testing.
To assess tactile thresholds in the Chung model, rats were placed in a clear plastic, wire mesh-bottomed cage, divided into individual compartments. Animals were allowed to acclimate and then baseline thresholds were assessed prior to drug treatment. To assess the 50% mechanical threshold for paw withdrawal, von Frey hairs were applied to the plantar mid-hindpaw, avoiding the tori (footpads). The eight von Frey hairs used are designated by [log (10*force required to bend hair, mg)] and range from 0.4-15.1 grams (#'s 3.61-5.18). Each hair was pressed perpendicularly against the paw with sufficient force to cause slight bending, and held for approximately 6-8 seconds. A positive response was noted if the paw was sharply withdrawn. Flinching immediately upon removal of the hair was also considered a positive response. Absence of a response (“−”) was cause to present the next consecutive stronger stimulus; a positive response (“+”) was cause to present the next weaker stimulus. Stimuli were presented successively until either six data points were collected, or the maximum or minimum stimulus was reached. If a minimum stimulus was reached and positive responses still occurred, the threshold was assigned an arbitrary minimum value of 0.25 grams; if a maximum stimulus was presented and no response occurred, a maximum threshold value of 15 grams was assigned. If a change in response occurs, either “−” to “+” or “+” to “−”, causing a change in the direction of stimulus presentation from descending to ascending or vice-versa, four additional data points were collected subsequent to the change.

A short description of data set [9]: Rat Tail-Flick. It is filed as in vivo.
Data set [10] deals with subunit of a voltage-gated calcium channel. As to conditions: cited from earlier work.
Data set [11] relates to GABA receptors. Particulars: cited from earlier work.
Setting [12] is: intraperitoneal, high doses of up to 600 mg/kg.
[13] abbreviates: intraperitoneal 10 to 75 mg/kg, at two and four hours.

On to `CCN1CCC(c2cccc(Cl)c2)(C(C)O)CC1` (stereo not shown), for which the melting point lay within 89 to 94 °C.

On to `CN1CCC(c2cccc(Cl)c2)(C(C)(C)O)C1` (stereo not shown), for which the melting point was in the range of 98 to 99 °C.

In turn, `CC(O)C1(c2cccc(Cl)c2)CCCN(C)CC1` (stereo not shown) yielded a melting point of 123 to 124 °C.

As for `NC(=O)OCC(COC(N)=O)c1ccccc1` [Felbamate, felbamate], in [1] (setting [12]), the heat hyperalgesia result is recorded as “completely abolished”, the hindpaw guarding result is given as “completely abolished”, the mechanical allodynia entry is “completely abolished” and the mechanical hyperalgesia result is listed as “completely abolished”. Also, in data set [1] (intraperitoneal), the “responses in the control hindpaw” value is “unaffected”. For the same compound, the toxicity in humans entry in data set [2] is “liver failure and aplastic anemia”.

As to `COc1cccc(C2(O)CCCCC2CN(C)C)c1` (stereo not shown) [TRAMADOL, Tramadol, reference compound], the ED50 in data set [3] was 31.2 mg/kg; in data set [4] (Rattus norvegicus), 40 mg/kg; in [5], 7.8 mg/kg.

Regarding `COc1ccc(C(CN(C)C)C2(O)CCCCC2)cc1` (stereo not shown) [Venlafaxine, reference compound], the “Rat Hot Plate ED50” value in data set [4] (rat) is “Inactive”. In addition, the ED50 in data set [6] is 39.2 mg/kg. For the same compound, the “formalin test, paw flinches, phase I” value in data set [7] (all administered doses (200/100/50 mg per kg)) is given as “statistically significant effects”. In data set [7] (all administered doses), the “formalin test, paw flinches, phase II” value was “statistically significant effects only during phases I and IIA”; the “formalin test, paw flinches, phase IIA” value is recorded as “statistically significant effects”. The “formalin test, paw flinches, Phase IIB” value in [7] was “No statistical significance”. Also, the “effects on tactile allodynia” value in data set [8] is recorded as “statistically significant effects”. Besides, in data set [9], the “Rat Tail-Flick” value is “Inactive”.

For `NCC1(CC(=O)O)CCCCC1` [gabapentin], in [10], the “binding to a subunit of a voltage-gated calcium channel” value is on record as “binds with high affinity”. In addition, in data set [1], the “responses on the control side” value is “no significant change”. Besides, in [1] (setting [13]), the heat hyperalgesia entry is on record as “suppressed” and the mechanical allodynia result is recorded as “suppressed”. The mechanical hyperalgesia entry in data set [1] (intraperitoneal 10 to 75 mg/kg) was “lacked effect”. Also, the “responses at 24 hours” value in data set [1] (intraperitoneal, 24 hours) is “abnormal responses had returned”. The “pattern of effects after intrathecal injection” value in data set [1] (intrathecal to the lumbar spinal cord, 37.5 to 150 mcg/kg) is reported as “the pattern was similar”. The “effect on GABA receptors” value in [11] is listed as “no direct effect”.
